Laboratory results: patent US20130065818A1, “Arylamide Compounds And Compositions And Uses Thereof” (POLYMEDIX, priority 2006, published 2013)
In brackets after ≈: the same amount, converted by molar mass. Several values for one entry are separate records, joined by “and”; a condition that tells them apart may be missing. Identical values can stand only once. Like-named read-outs stand apart in the source and are kept apart here.

Assays:
Assay type in all cases: cell-based
[1] = test system: Fluoroquinolone-Resistant Methicillin-Resistant Staphylococcus aureus Strain K950; assay: MIC characterization of strain K950; details: read-out: MIC (Minimum Inhibitory Concentration)
[2] = test system: Staphylococcus aureus fluoroquinolone-susceptible; assay: MIC, 25 ocular isolates, broth microdilution (Example 8)
Protocol: • Mueller-Hinton Broth in tubes was inoculated with 25 ocular isolates of Staphylococcus aureus fluoroquinolone-susceptible, Staphylococcus aureus fluoroquinolone-resistant, Staphylococcus epidermidis (Coagulase-negative Staphylococcus) fluoroquinolone-susceptible, Staphylococcus epidermidis (Coagulase-negative Staphylococcus) fluoroquinolone-resistant, Pseudomonas aeruginosa and Serratia marcescens, plus two controls (Staphylococcus aureus and E. coli) and incubated at 37° C. overnight on a shaker set at 250 rpm.
On the day of testing, a 640 μg/ml (1280 μg/ml for Serratia marcescens and Pseudomonas aeruginosa) concentration was prepared from a 1% stock solution in 0.01% acetic acid, 0.2% BSA in polypropylene tubes.
Serial doubling dilutions in 0.01% acetic acid, 0.2% BSA in 96 well polypropylene plates, which are used as reservoirs for the inoculation of the test plates, were carried out to obtain serial dilutions of test agents at 10 times the required test concentrations: 640, 320, 160, 80, 40, 20, 10, 5, 2.5, 1.25, and 0.625 μg/ml (1280, 640, 320, 160, 80, 40, 20, 10, 5, 2.5, and 1.25 μg/ml for Serratia marcescens and Pseudomonas aeruginosa).
Ten μl of diluted 10×test agents was added to each well of one row of the 96 well polypropylene plates from column 2 to column 12 (column 1 is a control for bacteria alone, with no peptide). Test agent concentrations in columns 2-12 were as follows: 64, 32, 16, 8, 4, 2, 1, 0.5, 0.25, 0.125, and 0.0625 μg/ml (128, 64, 32, 16, 8, 4, 2, 1, 0.5, 0.25, and 0.125 μg/ml for Serratia marcescens and Pseudomonas aeruginosa). The same peptide was in each of the 8 rows. One plate contained dilutions of one test agent and 8 bacterial isolates.
On the day of testing, the overnight bacterial broth cultures of Staphylococcus aureus fluoroquinolone-susceptible, Staphylococcus aureus fluoroquinolone-resistant, Staphylococcus epidermidis (Coagulase-negative Staphylococcus) fluoroquinolone-susceptible, Staphylococcus epidermidis (Coagulase-negative Staphylococcus) fluoroquinolone-resistant, Serratia marcescens, and Pseudomonas aeruginosa, plus two controls (Staphylococcus aureus and E. coli) were diluted in 5 ml of trypticase soy broth to yield turbidity equal to a 0.5 McFarland standard. The final inoculum for MIC testing for Staphylococcus aureus fluoroquinolone-susceptible, Staphylococcus aureus fluoroquinolone-resistant, Staphylococcus epidermidis (Coagulase-negative Staphylococcus) fluoroquinolone-susceptible, Staphylococcus epidermidis (Coagulase-negative Staphylococcus) fluoroquinolone-resistant, Serratia marcescens, and Pseudomonas aeruginosa was achieved by placing 0.05 ml of the turbidity adjusted sample to 5 ml of Mueller-Hinton broth.
Ninety μl of the bacterial suspensions was dispensed in each well from column 1 to column 12. Each bacterial isolate was placed in one row of a 96 well polypropylene plate containing the test agents. The plates were placed on shaker at 15 minutes at room temperature, and then incubated at 37° C. overnight. MICs were determined visually as the lowest concentration of drug that inhibits visible bacterial growth.

E. faecalis ATCC 29212 = assay: MIC, laboratory strains (Example 8)
[3] = 25 isolates, Summary of Results
[4] = Staphylococcus aureus, 25 ocular isolates, read-out: Median MIC
[5] = Staphylococcus aureus, isolate 1—E402, read-out: MIC
[6] = Staphylococcus aureus, isolate 2—E1512, read-out: MIC
[7] = Staphylococcus aureus, isolate 3—E253, read-out: MIC
[8] = Staphylococcus aureus, isolate 4—K1518, read-out: MIC
[9] = Staphylococcus aureus, isolate 5—K1525, read-out: MIC
[10] = Staphylococcus aureus, isolate 6—K1663, read-out: MIC
[11] = Staphylococcus aureus, isolate 7—K1648, read-out: MIC
[12] = Staphylococcus aureus, isolate 8—K1646, read-out: MIC
[13] = Staphylococcus aureus, isolate 9—K1642, read-out: MIC
[14] = Staphylococcus aureus, isolate 10—K1638, read-out: MIC
[15] = Staphylococcus aureus, isolate 11—K1628, read-out: MIC
[16] = Staphylococcus aureus, isolate 12—K1618, read-out: MIC
[17] = Staphylococcus aureus, isolate 13—K1617, read-out: MIC
[18] = Staphylococcus aureus, isolate 14—K1611, read-out: MIC
[19] = Staphylococcus aureus, isolate 15—K1607, read-out: MIC
[20] = Staphylococcus aureus, isolate 16—K1600, read-out: MIC
[21] = Staphylococcus aureus, isolate 17—K1591, read-out: MIC
[22] = Staphylococcus aureus, isolate 18—K1585, read-out: MIC
[23] = Staphylococcus aureus, isolate 19—K1583, read-out: MIC
[24] = Staphylococcus aureus, isolate 20—K1574, read-out: MIC
[25] = Staphylococcus aureus, isolate 21—K1566, read-out: MIC
[26] = Staphylococcus aureus, isolate 22—K1551, read-out: MIC
[27] = Staphylococcus aureus, isolate 23—K1545, read-out: MIC
[28] = Staphylococcus aureus, isolate 24—K1540, read-out: MIC
[29] = Staphylococcus aureus, isolate 25—K1530, read-out: MIC
[30] = Staphylococcus aureus, n=25 per group, read-out: Median MIC
[31] = Staphylococcus aureus, 25 isolates, Summary of Results, read-out: MIC50
[32] = Staphylococcus aureus, 25 isolates, Summary of Results, read-out: MIC90
[33] = Staphylococcus aureus, 25 isolates, Summary of Results, read-out: Median MIC

SMILES | MIC [1] [µg/mL] | MIC50 ([2]; 25 isolates, Row 13) [µg/mL] | MIC90 ([2]; 25 isolates, Row 22) [µg/mL] | Range of MICs [2, 3] [µg/mL] | MIC [2, 4] [µg/mL] | MIC [2, 5] [µg/mL] | MIC [2, 6] [µg/mL] | MIC [2, 7] [µg/mL] | MIC [2, 8] [µg/mL] | MIC [2, 9] [µg/mL] | MIC [2, 10] [µg/mL] | MIC [2, 11] [µg/mL] | MIC [2, 12] [µg/mL] | MIC [2, 13] [µg/mL] | MIC [2, 14] [µg/mL] | MIC [2, 15] [µg/mL] | MIC [2, 16] [µg/mL] | MIC [2, 17] [µg/mL] | MIC [2, 18] [µg/mL] | MIC [2, 19] [µg/mL] | further results
N=C(N)NCCCCC(=O)Nc1cc(C(F)(F)F)cc(NC(=O)c2cc(C(=O)Nc3cc(C(F)(F)F)cc(NC(=O)CCCCNC(=N)N)c3O[C@@H]3CCNC3)ncn2)c1O[C@@H]1CCNC1 [Oligomer 4] | 0.5 (≈ 0.534 µM) | 0.25 (≈ 0.267 µM) | 0.5 (≈ 0.534 µM) | 0.125 to 0.5 | ≤ 0.25 | 0.25 (≈ 0.267 µM) | 0.25 (≈ 0.267 µM) | 0.25 (≈ 0.267 µM) | 0.25 (≈ 0.267 µM) | 0.125 (≈ 0.133 µM) | 0.5 (≈ 0.534 µM) | 0.25 (≈ 0.267 µM) | 0.25 (≈ 0.267 µM) | 0.5 (≈ 0.534 µM) | 0.5 (≈ 0.534 µM) | 0.25 (≈ 0.267 µM) | 0.5 (≈ 0.534 µM) | 0.25 (≈ 0.267 µM) | 0.25 (≈ 0.267 µM) | 0.25 (≈ 0.267 µM) | MIC, sorted list for MIC50 and MIC90 Determinations (QSSA-A) ([2]; 25 isolates sorted ascending, Row 1-25, in µg/mL): 0.250 and 0.500; MIC [2, 20]: 0.25 µg/mL (≈ 0.267 µM); MIC [2, 21]: 0.25 µg/mL (≈ 0.267 µM); MIC [2, 22]: 0.25 µg/mL (≈ 0.267 µM); MIC [2, 23]: 0.25 µg/mL (≈ 0.267 µM); MIC [2, 24]: 0.25 µg/mL (≈ 0.267 µM); MIC [2, 25]: 0.25 µg/mL (≈ 0.267 µM); MIC [2, 26]: 0.25 µg/mL (≈ 0.267 µM); MIC [2, 27]: 0.25 µg/mL (≈ 0.267 µM); MIC [2, 28]: 0.25 µg/mL (≈ 0.267 µM); MIC [2, 29]: 0.25 µg/mL (≈ 0.267 µM); MIC [2, 30]: 0.25 µg/mL (≈ 0.267 µM); MIC50 [2, 31]: 0.25 µg/mL (≈ 0.267 µM); MIC90 [2, 32]: 0.25 µg/mL (≈ 0.267 µM); MIC [2, 33]: 0.25 µg/mL (≈ 0.267 µM); MIC50 ([2]; n=25 per group): 0.25 µg/mL (≈ 0.267 µM); MIC90 ([2]; n=25 per group): 0.25 µg/mL (≈ 0.267 µM); Range of MICs ([2]; n=25 per group): 0.125 to 0.5 µg/mL; MIC (E. faecalis ATCC 29212): 0.78 µg/mL (≈ 0.833 µM)
N=C(N)NCCCCC(=O)Nc1cc(C(F)(F)F)cc(NC(=O)c2cc(C(=O)Nc3cc(C(F)(F)F)cc(NC(=O)CCCCNC(=N)N)c3SCCN)ncn2)c1SCCN [Oligomer 2] | 0.25 (≈ 0.273 µM) |  |  |  |  |  |  |  |  |  |  |  |  |  |  |  |  |  |  |  | 
N=C(N)NCCCCC(=O)Nc1cc(C(F)(F)F)cc(NC(=O)c2cnc(C(=O)Nc3cc(C(F)(F)F)cc(NC(=O)CCCCNC(=N)N)c3SCCN)cn2)c1SCCN [Oligomer 5] |  | 0.25 (≈ 0.273 µM) | 0.25 (≈ 0.273 µM) | 0.125 to 0.5 | ≤ 0.25 | 0.5 (≈ 0.545 µM) | 0.25 (≈ 0.273 µM) | 0.25 (≈ 0.273 µM) | 0.125 (≈ 0.136 µM) | 0.125 (≈ 0.136 µM) | 0.125 (≈ 0.136 µM) | 0.125 (≈ 0.136 µM) | 0.25 (≈ 0.273 µM) | 0.25 (≈ 0.273 µM) | 0.25 (≈ 0.273 µM) | 0.25 (≈ 0.273 µM) | 0.125 (≈ 0.136 µM) | 0.25 (≈ 0.273 µM) | 0.25 (≈ 0.273 µM) | 0.25 (≈ 0.273 µM) | MIC [2, 20]: 0.125 µg/mL (≈ 0.136 µM); MIC [2, 21]: 0.5 µg/mL (≈ 0.545 µM); MIC [2, 22]: 0.25 µg/mL (≈ 0.273 µM); MIC [2, 23]: 0.25 µg/mL (≈ 0.273 µM); MIC [2, 24]: 0.25 µg/mL (≈ 0.273 µM); MIC [2, 25]: 0.25 µg/mL (≈ 0.273 µM); MIC [2, 26]: 0.125 µg/mL (≈ 0.136 µM); MIC [2, 27]: 0.25 µg/mL (≈ 0.273 µM); MIC [2, 28]: 0.25 µg/mL (≈ 0.273 µM); MIC [2, 29]: 0.5 µg/mL (≈ 0.545 µM); MIC [2, 30]: 0.25 µg/mL (≈ 0.273 µM); MIC50 [2, 31]: 0.25 µg/mL (≈ 0.273 µM); MIC90 [2, 32]: 0.5 µg/mL (≈ 0.545 µM); MIC [2, 33]: 0.25 µg/mL (≈ 0.273 µM); MIC50 ([2]; n=25 per group): 0.25 µg/mL (≈ 0.273 µM); MIC90 ([2]; n=25 per group): 0.5 µg/mL (≈ 0.545 µM); Range of MICs ([2]; n=25 per group): 0.125 to 0.5 µg/mL; MIC (E. faecalis ATCC 29212): 1.56 µg/mL (≈ 1.7 µM)
